Assay [1] addresses T1, LTB4 receptor (Homo sapiens, UniProt Q15722).
T1 construct: The reaction was started by addition of a thoroughly mixed PMN cell suspension (1.6×10^6 cells); endogenous in cells; host or cells: human polymorphonuclear leukocytes (PMN), whole-cell suspension
As to the kind of experiment: Binding inhibition against 3H-LTB4 on the human polymorphonuclear leukocyte (PMN). To be noted: percentage of inhibition of specific 3H-LTB4 (4nM) binding to human PMN, 0° C. for 20 min. As to the method:
Binding Inhibition Against ^3H-LTB4 on the Human Polymorphonuclear Leukocyte (PMN)
0.049 ml Hanks balanced salt solution (HBSS), 0.001 ml test compound and 0.05 ml ^3H-LTB4 (4nM) were added to polypropylene tubes and mixed. The reaction was started by addition of a thoroughly mixed PMN cell suspension (1.6×10^6 cells), followed by incubation at 0° C. for 20 min. The reaction was terminated by the addition of ice-cold HBSS (2.5 ml). PMNs were harvested by vacuum filtration through Whatman GF/C glass fiber filters on a Brandel cell harvester (BRANDEL, M-24R). The filters were then washed 2 times to remove free ^3H-LTB4 with 2.5 ml of the ice-cold PBS (−) solution. The filters were transferred to each vial, and equilibrated after adding 8 ml ACS II cocktail (Amersham). The radioactivity was measured by liquid scintillation counter (Aloka, LSC-5100).
Specific binding of ^3H-LTB4 to the LTB4 receptor was defined as total binding minus nonspecific binding. Nonspecific binding was the amount of ^3H-LTB4 binding in the presence of 1.5 μM LTB4 instead of the test compound. The inhibitory effect of test compound was calculated from the following equation.
The percentage of inhibition (%)=100−(B1/B0×100)
B1: Specific ^3H-LTB4 binding in presence of test compound
B0: Specific ^3H-LTB4 binding in absence of test compound
The compounds of the formula (IB), of the present invention have an antagonistic activity on LTB4. The results which are measured by method as hereinbefore described in Example 1(A), are shown the following Table 18.

Assay [2] addresses T2, trypsin (derived from bovine pancreas) (Bos taurus, UniProt P00760).
T2 construct: a solution of 80 mU/ml trypsin (derived from bovine pancreas) (50 μl); from tissue; host or cells: bovine pancreas
T2 sequence (P00760 24-246): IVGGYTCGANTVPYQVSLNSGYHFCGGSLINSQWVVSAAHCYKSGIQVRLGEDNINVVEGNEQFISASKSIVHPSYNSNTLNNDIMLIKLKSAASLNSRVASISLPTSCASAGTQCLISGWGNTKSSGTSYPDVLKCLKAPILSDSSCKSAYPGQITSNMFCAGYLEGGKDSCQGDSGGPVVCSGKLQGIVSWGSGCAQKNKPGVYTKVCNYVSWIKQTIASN
As to the kind of experiment: Inhibitory activity on trypsin. It is filed as biochemical. As for the experimental part:
(2) Inhibitory Activity on Trypsin
To a mixture of a 0.2 M HEPES.sodium hydroxide buffer solution (pH 8.0, 100 μl) and distilled water (640 μl), were added a test compound in various concentration or water (10 μl), and a solution of 80 mU/ml trypsin (derived from bovine pancreas) (50 μl) and then the mixture was preincubated for one minute at 30° C. To the solution thus obtained was added 2.5 mM BAPNA (200 μl) and the mixture was incubated at 30° C. The absorbance at 405 nm was measured. Percentage (%) of the absorbance in the presence of a test compound was calculated when the absorbance in the absence thereof was regarded as 100%, and therefrom IC50 value was calculated.
HEPES represents 4-2-hydroxyethyl)-1-piperazineethanesulfonic acid, and
BAPNA represents α-N-benzoyl-DL-arginine-p-nitroanilide hydrochloride.

Assay [3] has as its target T3, PLA2 (derived from hog pancreas) (Sus scrofa, UniProt P00592).
T3 construct: a solution of 10 mU/ml PLA2 (derived from hog pancreas) (50 μl); from tissue; host or cells: hog pancreas
As to the kind of experiment: Inhibitory activity on PLA2. It is filed as biochemical. To be noted: hog pancreas PLA2, 10PY-PC substrate, fluorescence, pH7.5. As to the method: (1) Inhibitory Activity on PLA2
A reaction solution including 50 mM tris-HCl buffer (pH7.5, 874 μl; containing 100 mM sodium chloride, 1 mM EDTA), 1M calciumchloride (6 μl), 1% bovine serum albumin (10 μl) and 2.5 mM 10PY-PC (10 μl), was prepared. To the solution were added a test compound in various concentration or water (50 μl), and a solution of 10 mU/ml PLA2 (derived from hog pancreas) (50 μl). The appearance of fluorescence was measured (Ex=345 nm, Em=396 nm). Percentage (%) of the strength of fluorescence in the presence of a test compound was calculated when the strength of that in the absence thereof was regarded as 100%, and therefrom IC50 value was calculated.
10PY-PC represents 3′-palmitoyl-2-(1-pyrenedecanoyl)-L-α-phosphatidylcholine, […]

The mark [4] stands for this setting: formula (IA) compounds, Table 17.
The mark [5] stands for this setting: bovine pancreas trypsin, BAPNA substrate, 30° C., pH 8.0, read-out: inhibitory activity on trypsin IC50.
[6] abbreviates: formula (IB) compounds, Table 18.

The structures appear in SMILES notation. Where two headings read alike, the source gives them in different places.

T1 sequence (Q15722 whole entry): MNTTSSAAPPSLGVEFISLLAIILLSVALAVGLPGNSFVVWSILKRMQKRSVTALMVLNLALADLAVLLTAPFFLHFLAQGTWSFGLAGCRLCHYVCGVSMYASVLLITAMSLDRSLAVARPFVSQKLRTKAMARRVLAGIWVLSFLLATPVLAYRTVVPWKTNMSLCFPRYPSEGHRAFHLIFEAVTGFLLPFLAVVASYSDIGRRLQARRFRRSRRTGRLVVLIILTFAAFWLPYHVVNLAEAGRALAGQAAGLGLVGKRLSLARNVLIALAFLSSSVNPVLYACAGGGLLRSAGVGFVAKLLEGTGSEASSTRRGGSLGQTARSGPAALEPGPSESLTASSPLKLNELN
T3 sequence (P00592 23-146): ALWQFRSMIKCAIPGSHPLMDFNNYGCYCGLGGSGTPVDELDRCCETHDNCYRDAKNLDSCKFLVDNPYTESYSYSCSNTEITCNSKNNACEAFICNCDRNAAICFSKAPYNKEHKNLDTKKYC

For the compound `C=CCN(CC(=O)OCC)C(=O)/C(C)=C/c1ccc(C(=O)Oc2ccc(C(=N)N)cc2)cc1` [Compound 1], the inhibition in assay [1] (setting [4]) was found to be 91.5%. Regarding `C=CCN(CC(=O)OCC)C(=O)COc1ccc(C(=O)Oc2ccc(C(=N)N)cc2)cc1` [Compound 2], the IC50 in assay [2] (setting [5]) came to 190 nM. Moreover, the inhibition in assay [1] (setting [6]) is 79.7%. For the compound `CCOC(=O)CC[C@H](NC(=O)/C=C(\C)c1ccc(C(=O)Oc2ccc(C(=N)N)cc2)cc1)C(=O)OCC` [Compound 4], the inhibition in assay [1] (setting [4]) was 63.7%.

As for `CCOP(=O)(CCCc1ccccc1)Cc1ccc(C(=O)Oc2ccc(C(=N)N)cc2)cc1` (stereo not shown) [Compound 4], the figures for the concentration for half-maximal inhibition (IC50) in assay [2] (setting [5]) and in assay [3] were 160 nM and 41000 nM, respectively. Besides, the inhibition in assay [1] (setting [6]) was determined as 73.1%. On to `N=C(N)c1ccc(OC(=O)c2ccc(CN3CCC(c4ccccc4)CC3)cc2)cc1` [Compound 5], for which the IC50 in assay [2] (setting [5]) stood at 130 nM. Besides, the inhibition in assay [1] (setting [6]) came to 89.7%.

As to `CCOC(=O)CN(Cc1ccccc1)Cc1ccc(C(=O)Oc2ccc(C(=N)N)cc2)cc1` [Compound 6], the IC50 came out at 170 nM in assay [2] (setting [5]) and 4500 nM in assay [3]. Further, the inhibition in assay [1] (setting [6]) worked out at 67.8%. For the compound `C=CCN(CCCC(=O)OCC)C(=O)/C(C)=C/c1ccc(C(=O)Oc2ccc(C(=N)N)cc2)cc1` [Compound 14], the inhibition in assay [1] (setting [4]) worked out at 96.5%. Same read-out and setting: in the case of `CCOC(=O)CCN(CC(=O)OCC)C(=O)/C(C)=C/c1ccc(C(=O)Oc2ccc(C(=N)N)cc2)cc1` [Compound 18] it was 87%; in that of `C=CCN(CCCC(=O)O)C(=O)/C(C)=C/c1ccc(C(=O)Oc2ccc(C(=N)N)cc2)cc1` [Compound 20], 83.5%; in that of `C/C(=C\c1ccc(C(=O)Oc2ccc(C(=N)N)cc2)cc1)C(=O)N(CC(=O)O)Cc1ccccc1` [Compound 21], 90.8%. The same measure, in the same setting: in the case of `COCCCN(C(=O)/C(C)=C/c1ccc(C(=O)Oc2ccc(C(=N)N)cc2)cc1)C(C(=O)O)C(=O)O` [Compound 24] it was 61.2%. `N=C(N)C1=Cc2ccc(OC(=O)c3ccc(C(=O)N(Cc4ccccc4)c4ccccc4)cc3)cc2CC1` [Example 2(a)]: the half-maximal inhibitory concentration (IC50) in assay [2] (setting [5]) stood at 400 nM; in assay [3] it was 2600 nM. Further, the inhibition in assay [1] (setting [6]) came to 92%.

Take `C/C(=C\c1ccc(C(=O)Oc2ccc(C(=N)N)cc2)cc1)C(=O)N(CCC(=O)O)C1CCCCC1` [Example 2(aa)]: the inhibition in assay [1] (setting [6]) is 94.4%. In the case of `N=C(N)C1=Cc2ccc(OC(=O)c3ccc(C(=O)N(CC(=O)OCc4ccccc4)c4ccccc4)cc3)cc2CC1` [Example 2(b)], the half-maximal inhibitory concentration (IC50) in assay [2] (setting [5]) worked out at 560 nM; in assay [3] it was 3800 nM. In addition, in assay [1] (setting [6]), the inhibition stood at 97.9%. On to `CCOC(=O)CN(CCOC)C(=O)/C(C)=C/c1ccc(C(=O)Oc2ccc(C(=N)N)cc2)cc1` [Example 2(bb)], for which the inhibition in assay [1] (setting [6]) was 87.3%. With `CCOC(=O)CN(C(=O)c1ccc(C(=O)Oc2ccc3c(c2)CCC(C(=N)N)=C3)cc1)c1ccccc1` [Example 2(c)], the 50% inhibitory concentration (IC50) in assay [2] (setting [5]) is 260 nM; in assay [3] it was 8100 nM. Further, the inhibition in assay [1] (setting [6]) came out at 103%.

With `C/C(=C\c1ccc(C(=O)Oc2ccc(C(=N)N)cc2)cc1)C(=O)N(CC(=O)O)CC1CCCO1` (stereo not shown) [Example 2(cc)], the inhibition in assay [1] (setting [6]) was 76.7%. With `CCOC(=O)CN(C(=O)c1ccc(C(=O)Oc2ccc(/C=C/C(=N)N)cc2)cc1)c1ccccc1` [Example 2(d)], the IC50 in assay [2] (setting [5]) came to 140 nM; in assay [3] it was 8700 nM. Further, the inhibition in assay [1] (setting [6]) is 99.3%. On to `C/C(=C\c1ccc(C(=O)Oc2ccc(C(=N)N)cc2)cc1)C(=O)N(CC(=O)O)CC1CCNCC1` [Example 2(dd)], for which the inhibition in assay [1] (setting [6]) worked out at 50.8%.

In the case of `CCOC(=O)[C@H](COC(=O)c1ccccc1)NC(=O)/C(C)=C/c1ccc(C(=O)Oc2ccc(C(=N)N)cc2)cc1` [Example 2(e)], the results for the IC50 in assay [2] (setting [5]) and in assay [3] were 340 nM and 8500 nM, respectively. Further, in assay [1] (setting [6]), the inhibition is 94.5%. Consider `C=CCN(CC(=O)O)C(=O)/C(C)=C/c1ccc(C(=O)Nc2ccc(C(=N)N)cc2)cc1` [Example 2(ee)], for which, in assay [1] (setting [6]), the inhibition worked out at 65.3%. `CCOC(=O)CC[C@H](NC(=O)c1ccc(/C=C/C(=O)Oc2ccc(C(=N)N)cc2)cc1)C(=O)OCC` [Example 2(f)]: the IC50 in assay [2] (setting [5]) stood at 100 nM; in assay [3], 70000 nM. Also, in assay [1] (setting [6]), the inhibition was 91.8%. In the case of `COc1cc(C(=N)N)ccc1OC(=O)c1ccc(C(=O)N(CCCc2ccccc2)C(Cc2ccccc2)Cc2ccccc2)cc1` [Example 2(ff)], the inhibition in assay [1] (setting [6]) was determined as 82.4%. For `CCOC(=O)CC[C@H](NC(=O)c1ccc(/C=C(\C)C(=O)Oc2ccc(C(=N)N)cc2)cc1)C(=O)OCC` [Example 2(g)], the IC50 in assay [2] (setting [5]) was 160 nM; in assay [3] it was 53000 nM. Further, the inhibition in assay [1] (setting [6]) came out at 89.6%.

Turning to `CCOC(=O)/C=C/CC(NC(=O)/C(C)=C/c1ccc(C(=O)Oc2ccc(C(=N)N)cc2)cc1)(C(=O)OCC)C(=O)OCC` [Example 2(h)], the IC50 in assay [2] (setting [5]) is 150 nM; in assay [3], 11000 nM. In addition, the inhibition in assay [1] (setting [6]) was 85.4%. For `C=CCN(CC(=O)OCC)C(=O)c1ccc(C(=O)Oc2ccc(/C=C/C(=N)N)cc2)cc1` [Example 2(i)] the same measures were 140 nM, 59000 nM and 69.6%. As to `CCOC(=O)CC[C@H](NC(=O)COc1ccc(C(=O)Oc2ccc(C(=N)N)cc2)cc1)C(=O)OCC` [Example 2(j)], the IC50 in assay [2] (setting [5]) amounted to 120 nM. The inhibition in assay [1] (setting [6]) was determined as 55.4%. Take `C=CCN(CC(=O)NCCN(C)C)C(=O)/C(C)=C/c1ccc(C(=O)Oc2ccc(C(=N)N)cc2)cc1` [Example 2(t)]: the inhibition in assay [1] (setting [6]) was determined as 51.5%.

For `C=CCN(CC(=O)OCCN(C)C)C(=O)/C(C)=C/c1ccc(C(=O)Oc2ccc(C(=N)N)cc2)cc1` [Example 2(u)], the inhibition in assay [1] (setting [6]) is 67.6%. Still for that read-out and setting: to `C=CCN(CC(=O)Oc1ccc(C(=N)N)cc1)C(=O)/C(C)=C/c1ccc(C(=O)Oc2ccc(C(=N)N)cc2)cc1` [Example 2(v)] belongs 92%; to `C=CCN(CC(=O)NC(C(=O)OCC)C(=O)OCC)C(=O)/C(C)=C/c1ccc(C(=O)Oc2ccc(C(=N)N)cc2)cc1` [Example 2(w)], 76.7%; to `C=CCN(CC=C)C(=O)CN(CC=C)C(=O)/C(C)=C/c1ccc(C(=O)Oc2ccc(C(=N)N)cc2)cc1` [Example 2(x)], 94.1%. Same read-out and setting: to `CCOC(=O)CN(C(=O)/C(C)=C/c1ccc(C(=O)Oc2ccc(C(=N)N)cc2)cc1)[C@@H](CC(C)C)C(=O)OCC` [Example 2(y)] belongs 85.5%. Regarding `CCOC(=O)CCN(CCC(C)C)C(=O)/C(C)=C/c1ccc(C(=O)Oc2ccc(C(=N)N)cc2)cc1` [Example 2(z)], the inhibition in assay [1] (setting [6]) is 92.8%. In assay [2], `CCOP(=O)(/C=C/c1ccc(C(=O)Oc2ccc(C(=N)N)cc2)cc1)OCC` [Example 4(a)] had an IC50 of 140 nM. Further, in assay [1] (setting [6]), the inhibition was 52%. For the compound `N=C(N)c1ccc(OC(=O)c2ccc(Cn3ccnc3-c3ccccc3)cc2)cc1` [Example 5(a)], in assay [2] (setting [5]), the concentration for half-maximal inhibition (IC50) was 150 nM. The inhibition in assay [1] (setting [6]) is 62.5%.

Regarding `CCOC(=O)c1cc2ccccc2n1Cc1ccc(C(=O)Oc2ccc(C(=N)N)cc2)cc1` [Example 5(b)], in assay [1] (setting [6]), the inhibition is 90.2%.

By inhibition is commonly meant the relative decrease from the control value, in per cent. One may read the IC50 as the point on the concentration scale where inhibition reaches its midpoint.
